This is an account of results in US6730666B1, “Pharmaceutical compositions comprising porphyrins and some novel porphyrin derivatives” (Yeda Research and Development Co. Ltd., priority 1998, dated 2004).

In general, IC50 refers to the point on the concentration scale where inhibition reaches its midpoint.

Like-named read-outs stand apart in the source and are kept apart here.

The test system of test [1] is Lewis lung carcinoma (LLC) lung metastasis. Briefly: Lewis lung carcinoma lung metastasis model. The format is in vivo, C57 black mice. Also noted: Inhibitory activity in vivo, LLC tumor model (as % of total inhibition): reference not given here. As to conditions: for Inhibitory activity in vivo, LLC tumor model (as % of total inhibition): 25 μg/gram, LLC murine tumor model, lung metastasis. As for the experimental part: (vii) Lewis lung carcinoma tumor assay. Murine Lewis lung carcinoma (LLC) D122 cells (1×10^6 cells/[…] PBS) were injected into the foot pads of 10-week old C57 black mice (O'Reilly et al, 1994). Twenty five μg/g of body mass of porphyrin or corrole compound dissolved in PBS were injected IP twice a week to the treated group, and tumor size was measured periodically in order to follow primary tumor formation. In order to evaluate inhibition of lung metastasis by porphyrin or corrole compound, the primary tumors were allowed to develop over a period of six weeks to a volume of approximately 8 mm^3; after which the tumors were removed and metastases were allowed to develop for four weeks. During this time the treated group received 25 μg/g of body mass of porphyrin or corrole compound IP twice a week. Subsequently the mice were sacrificed, dissected and the lungs removed and photographed. The extent of lung metastasis was measured by weighing the lungs.
After establishing the capacity of P1 to inhibit primary tumor growth, the capacity of P1 to inhibit lung metastasis formation was measured as described in Methods, section (vi). Mice were injected with LLC cells (200,000 cells per mouse) into the foot pad and primary tumors were allowed to develop over a period of 3 to 4 weeks to a volume of approximately 8 mm^3. Subsequently, primary tumors were removed through amputation and lung metasases were allowed to develop for four weeks before the mice were sacrificed. The extent of lung metastasis at this point was examined by gross morphological examination and by determining the gain in lung weight. […] In order to quantitate the results from these experiments, the lungs from all mice were weighed and evaluated for the extent of metastatic growth.

Another test has as its target T1, soluble FGFR-1 (FRAP) (Mus musculus, UniProt P16092).
T1 sequence (P16092 22-376 limits assumed): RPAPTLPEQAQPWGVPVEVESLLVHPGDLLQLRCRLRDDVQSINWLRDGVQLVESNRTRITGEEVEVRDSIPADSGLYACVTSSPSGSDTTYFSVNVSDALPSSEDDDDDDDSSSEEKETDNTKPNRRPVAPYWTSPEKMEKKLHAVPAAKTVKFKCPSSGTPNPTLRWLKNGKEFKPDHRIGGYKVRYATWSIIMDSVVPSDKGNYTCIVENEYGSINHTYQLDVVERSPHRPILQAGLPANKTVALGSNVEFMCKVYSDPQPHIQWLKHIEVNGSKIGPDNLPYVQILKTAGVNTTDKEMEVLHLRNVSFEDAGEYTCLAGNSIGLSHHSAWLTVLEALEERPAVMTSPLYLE
Briefly: Binding of 125I-bFGF to immobilized soluble FGFR-1 (FRAP), cell-free.

The target in test [2] is T2, FGFR-1 (Mus musculus, UniProt P16092). Briefly: Binding of 125I-bFGF to CHO cells expressing FGFR-1.
Description: First we utilized a cell-free system, measuring the binding of radiolabeled bFGF to a dimeric soluble FGFR-1 fused to alkaline phosphatase. The soluble FRAP was immobilized using an anti-alkaline phosphatase antibody prebound to agarose-protein A beads (see Methods, section (iii)). As a: second experimental model, we used CHO cells deficient in heparan sulfate and genetically engineered to express FGFR-1 (Methods, section (iv)).
For test [3], the target named is T3, FGFR-1 alkaline phosphatase fusion protein (FRAP) (Mus musculus, UniProt P16092).
T3 construct: soluble FGFR-1 ectodomain alkaline phosphatase fusion protein (FRAP); made in house; host or cells: NIH 3T3 cells (conditioned medium)
T3 sequence (P16092 22-376 limits assumed): T1 sequence (P16092 22-376 limits assumed)
Nature of the test: Binding of soluble FGFR-1 alkaline phosphatase fusion protein (FRAP) to bFGF immobilized on heparin (Screen AP assay). The settings on record: binding of FGF to FGFR; Methods section (ii); read-out: Screen AP assay (IC50). The procedure:
(ii) Binding of soluble FGFR-1 alkaline phosphatase fusion protein (FRAP) to immobilized bFGF. […] The end-point of the assay measured enzymatically the formation of FGF-receptor complexes quantitated by the specifically associated alkaline phosphatase (AP) catalyzed chromogenic product.
Subsequently, 200 μl of FRAP condition medium and porphyrin/corrole compound were added and incubated together for 2 h.
In order to identify inhibitors of FGF-FGFR interactions, an assay for testing FGFR-ligand binding was developed. The system is composed of bFGF bound to a heparin matrix to which soluble FGFR-1 ectodomain alkaline phosphatase fusion protein (FRAP) and the screened compounds are added (see Methods, section (ii)).

For test [4], the target named is T2, FGFR-1. Nature of the test: Covalent cross-linking of 125I-bFGF to CHO cells transfected with FGFR-1. Set-up: expressed in transfected cells; host or cells: CHO cells deficient in heparan sulfate. The format is binding. As to conditions: FIG. 2. As for the experimental part:
Binding of ^125I-bFGF to confluent monolayers of PGFR-1 expressing CHO cells or ^125I-FGF9 to FGFR-3 expressing CHO cells, was performed as described in Methods, section (iv), in the presence or absence of P1 (Inhibitor). After 90 min, disuccinylimidyl suberate [DSS]
(iv) Binding of ^125I-bFGF and ^125I-FGF9 to cells. Confluent cultures of CHO cells expressing FGFR-1(Yayon et al, 1991) or FGFR-3 (Hecht et al, 1995) in 24-well plates (Falcon) were precooled and washed twice with cold DMEM supplemented with 20 mM Hepes (pH 7.5) and 0.1% bovine serum albumin (DMEM/BSA). They were then incubated for 1.5 h at 4° C. with ^125I-bFGF (2 ng/ml) and increasing concentrations of porphyrin/corrole compound. The binding medium was discarded and the cells were washed once with ice-cold DMEM/BSA and twice with cold PBS (pH 7.5) containing 1.6M NaCl. […] Non-specific binding was determined in the presence of a 100-fold excess of unlabeled bFGF.
In order to unequivocally determine the specificity of the binding inhibition, chemical cross-linking of ^125I-bFGF and ^125I-FGF9 to CHO cells transfected with FGFR-1 and FGFR-3, respectively, was carried out as described in Methods, section (iv), in the absence or presence of increasing concentrations of P1.

Where [5] appears, read: read-out: Soluble receptor binding (IC50), binding of FGF to FGFR, Methods section (iii).
Where [6] appears, read: read-out: Cellular receptor binding (IC50), binding of FGF to FGFR, Methods section (iv).

T2 sequence (P16092 22-822): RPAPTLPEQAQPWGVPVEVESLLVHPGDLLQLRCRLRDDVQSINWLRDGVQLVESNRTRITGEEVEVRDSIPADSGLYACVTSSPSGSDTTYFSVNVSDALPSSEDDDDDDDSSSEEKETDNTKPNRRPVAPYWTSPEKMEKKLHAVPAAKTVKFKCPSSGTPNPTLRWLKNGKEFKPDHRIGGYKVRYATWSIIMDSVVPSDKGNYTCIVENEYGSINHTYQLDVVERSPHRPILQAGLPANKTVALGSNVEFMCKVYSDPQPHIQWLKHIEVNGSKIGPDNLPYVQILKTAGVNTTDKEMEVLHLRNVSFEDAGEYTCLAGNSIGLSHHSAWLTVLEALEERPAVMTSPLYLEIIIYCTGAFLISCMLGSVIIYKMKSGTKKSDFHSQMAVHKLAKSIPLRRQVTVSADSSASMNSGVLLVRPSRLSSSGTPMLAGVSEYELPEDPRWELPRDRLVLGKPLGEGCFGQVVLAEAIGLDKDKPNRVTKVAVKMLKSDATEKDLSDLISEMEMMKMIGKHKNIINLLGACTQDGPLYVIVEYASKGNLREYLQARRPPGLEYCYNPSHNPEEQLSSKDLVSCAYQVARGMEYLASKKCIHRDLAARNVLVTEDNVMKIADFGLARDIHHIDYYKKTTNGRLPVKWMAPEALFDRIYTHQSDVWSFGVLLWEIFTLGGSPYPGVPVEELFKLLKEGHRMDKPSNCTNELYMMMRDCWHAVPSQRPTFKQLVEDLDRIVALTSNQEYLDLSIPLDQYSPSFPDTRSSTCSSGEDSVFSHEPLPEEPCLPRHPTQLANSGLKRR
Description for soluble FGFR-1 (FRAP): First we utilized a cell-free system, measuring the binding of radiolabeled bFGF to a dimeric soluble FGFR-1 fused to alkaline phosphatase. […] As a: second experimental model, we used CHO cells deficient in heparan sulfate and genetically engineered to express FGFR-1 (Methods, section (iv)).

`C[n+]1cccc(-c2c3nc(c(-c4ccc[n+](C)c4)c4ccc([nH]4)c(-c4ccc[n+](C)c4)c4nc(c(-c5ccc[n+](C)c5)c5ccc2[nH]5)C=C4)C=C3)c1.Cc1ccc(S(=O)(=O)[O-])cc1.Cc1ccc(S(=O)(=O)[O-])cc1.Cc1ccc(S(=O)(=O)[O-])cc1.Cc1ccc(S(=O)(=O)[O-])cc1` [Compound P12, 5,10,15,20-Tetrakis(N-methyl-3-pyridylium)-21H,23H-porphine tetra-p-tosylate]: the “Inhibitory activity in vivo, LLC tumor model (as % of total inhibition)” value (“Inhibitory activity … (as % of total inhibition)” for short) in test [1] stood at 0%. The concentration for half-maximal inhibition (IC50) at soluble FGFR-1 (FRAP) (setting [5]) was 10000 nM; on FGFR-1 [2] (setting [6]), above 10000 nM.
In the case of `C[n+]1ccc(-c2c3nc(c(-c4cc[n+](C)cc4)c4ccc([nH]4)c(-c4c(F)c(F)c(F)c(F)c4F)c4nc(c(-c5c(F)c(F)c(F)c(F)c5F)c5ccc2[nH]5)C=C4)C=C3)cc1` [Compound P18, 5,10-Bis(pentafluorophenyl)-15,20-bis(N-methyl-4-pyridylium)-21H,23H-porphine diiodide], the “Inhibitory activity … (as % of total inhibition)” value in test [1] came out at 50%. In addition, the IC50 at soluble FGFR-1 (FRAP) was determined as 75 nM; at FGFR-1 [2], 100 nM.
In the case of `C[n+]1cccc(-c2c3nc(c(-c4ccc[n+](C)c4)c4ccc([nH]4)c(-c4ccc[n+](C)c4)c4nc(c(-c5ccc[n+](C)c5)c5ccc2[nH]5)C=C4)C=C3)c1` [Compound P13, 5,10,15,20-Tetrakis(N-methyl-3-pyridylium)-21H,23H-porphine tetraiodide], the IC50 at soluble FGFR-1 (FRAP) and at FGFR-1 [2] was above 10000 nM each time.
Turning to `C[n+]1ccc(C2=Cc3cc4[nH]c(cc5nc(cc6[nH]c(cc2n3)cc6-c2cc[n+](C)cc2)C=C5c2cc[n+](C)cc2)cc4-c2cc[n+](C)cc2)cc1` [Compound P10, 3,8,13,18-Tetrakis(N-methyl-4-pyridylium)-21H,23H-porphine tetraiodide], the half-maximal inhibitory concentration (IC50) on soluble FGFR-1 (FRAP) (setting [5]) was 850 nM; on FGFR-1 [2] (setting [6]), 1900 nM; in test [3], 80 nM.
For the compound `C[n+]1ccccc1-c1c2nc(c(-c3cccc[n+]3C)c3ccc([nH]3)c(-c3cccc[n+]3C)c3nc(c(-c4cccc[n+]4C)c4ccc1[nH]4)C=C3)C=C2` (single isomer, unassigned) [Compound P7, 5,10,15,20-Tetrakis-(N-methyl-2-pyridylium)-21H,23H-porphine tetraiodide], the “Inhibitory activity … (as % of total inhibition)” value in test [1] is on record as 90%.
“Tetrakis(4-cumyloxyphenoxy)phthalocyanine [Compound P4]”: the IC50 in test [3] is above 10000 nM.
As to `C[n+]1ccc(-c2c3nc(c(-c4c(F)c(F)c(F)c(F)c4F)c4ccc([nH]4)c(-c4cc[n+](C)cc4)c4nc(c(-c5c(F)c(F)c(F)c(F)c5F)c5ccc2[nH]5)C=C4)C=C3)cc1` [Compound P17, 5,15-Bis(pentafluorophenyl)-10,20-bis(N-methyl-4-pyridylium)-21H,23H-porphine diiodide], in test [1], the “Inhibitory activity … (as % of total inhibition)” value is reported as 40%. The figures for the IC50 at soluble FGFR-1 (FRAP) and at FGFR-1 [2] were 20 nM and 30 nM, respectively.
Take `Cc1ccc(C(=O)Nc2ccc(S(=O)(=O)O)c3cc(S(=O)(=O)O)cc(S(=O)(=O)O)c23)cc1NC(=O)c1cccc(NC(=O)Nc2cccc(C(=O)Nc3cc(C(=O)Nc4ccc(S(=O)(=O)O)c5cc(S(=O)(=O)O)cc(S(=O)(=O)O)c45)ccc3C)c2)c1` [Suramin, reference compound]: the “Inhibition of bFGF-receptor complex formation (cross-linking), in words” value on FGFR-1 [4] was “demonstrated FGF receptor binding inhibition”.
For the compound `C[n+]1ccccc1-c1c(F)c(F)c(-c2c3nc(c(-c4c(F)c(F)c(-c5cccc[n+]5C)c(F)c4F)c4ccc([nH]4)c4ccc([nH]4)c(-c4c(F)c(F)c(-c5cccc[n+]5C)c(F)c4F)c4ccc2[nH]4)C=C3)c(F)c1F` [Compound P21, 5,10,15-Tris[2,3,5,6-tetrafluorophenyl-4-(N-methyl-2-pyridylium)]-21H,23H-corrole triiodide], the “Inhibition of lung metastasis in LLC model, in words” value in test [1] (25 μg/g of body mass IP) was “highly active in vivo”. The “Inhibitory activity … (as % of total inhibition)” value in test [1] worked out at 200%. Moreover, the “Concentration inhibiting lung metastasis formation in vivo” value in test [1] (mouse, in vivo) turned out to be 5 mg/kg body weight. Also, the “Inhibition of bFGF binding to immobilized FRAP, in words” value at soluble FGFR-1 (FRAP) (FIG. 8B) was “inhibit bFGF binding in vitro”.
With `C[n+]1ccc(-c2c3nc(c(-c4cc[n+](C)cc4)c4ccc([nH]4)c(-c4c(F)c(F)c(NCCCN)c(F)c4F)c4nc(c(-c5cc[n+](C)cc5)c5ccc2[nH]5)C=C4)C=C3)cc1` [Compound P19], the figures for the IC50 (on FGFR-1 [2] (setting [6]); in test [3]) were 2000 nM and 100 nM, respectively.
Consider `C[n+]1ccc(-c2c3nc(c(-c4cc[n+](C)cc4)c4ccc([nH]4)c(-c4cc[n+](C)cc4)c4nc(c(-c5cc[n+](C)cc5)c5ccc2[nH]5)C=C4)C=C3)cc1` [Compound P8, 5,10,15,20-Tetrakis-(N-methyl-4-pyridylium)-21H,23H-porphine tetraiodide], for which, in test [1], the “Inhibitory activity … (as % of total inhibition)” value was 90%. Further, the IC50 was 950 nM on soluble FGFR-1 (FRAP) (Soluble receptor binding (IC50), binding of FGF to FGFR, Methods section (iii)); 1300 nM on FGFR-1 [2] (Cellular receptor binding (IC50), binding of FGF to FGFR, Methods section (iv)); 95 nM in test [3].
As for `C[N+](C)(C)c1ccc(-c2c3nc(c(-c4ccc([N+](C)(C)C)cc4)c4ccc([nH]4)c(-c4ccc([N+](C)(C)C)cc4)c4nc(c(-c5ccc([N+](C)(C)C)cc5)c5ccc2[nH]5)C=C4)C=C3)cc1` [Compound P5, 5,10,15,20-Tetrakis[4-(trimethylammonio)phenyl]-21H,23H-porphine tetra-p-tosylate], the “Inhibitory activity … (as % of total inhibition)” value in test [1] stood at 75%. Besides, the IC50 on soluble FGFR-1 (FRAP) was 900 nM; at FGFR-1 [2], 1800 nM; in test [3] it was 100 nM.
In the case of `COc1ccc(-c2c3nc(c(-c4ccc(OC)cc4)c4ccc([nH]4)c(-c4ccc(OC)cc4)c4nc(c(-c5ccc(OC)cc5)c5ccc2[nH]5)C=C4)C=C3)cc1` [Compound P3, 5,10,15,20-Tetrakis(4-methoxyphenyl)-21H,23H-porphine], the IC50 in test [3] is above 10000 nM.
For `O=C(O)c1ccc(-c2c3nc(c(-c4ccc(C(=O)O)cc4)c4ccc([nH]4)c(-c4ccc(C(=O)O)cc4)c4nc(c(-c5ccc(C(=O)O)cc5)c5ccc2[nH]5)C=C4)C=C3)cc1` [Compound P11, 5,10,15,20-Tetrakis(4-carboxylatophenyl) 21H,23H-porphine tetraammonium], the IC50 on FGFR-1 [2] is above 10000 nM; in test [3], 500 nM.
